Measured values from publication PMC10635799, “Analogs of FTY720 inhibit TRPM7 but not S1PRs and exert multimodal anti-inflammatory effects” (The Journal of General Physiology, 2023).
Like-named read-outs stand apart in the source and are kept apart here.

Experiments:
[1] = test system: LPS-induced endotoxemia in mice; assay: Sublethal LPS-induced peritonitis (endotoxemia) mouse model; type: in vivo
Description: (§1) 12-wk-old WT C57BL/6J mice were purchased from Jackson Laboratory (Strain #000664). An equal number of male and female mice were randomly assigned to each treatment group. All studies were conducted according to a protocol approved by the University of Virginia Animal Care and Use Committee. Mice were socially housed with littermate controls and provided with free access to a standard chow diet and water. Baseline weights were taken <1 h prior to the experiment for individual dose calculations. For the sublethal model, mice were injected intraperitoneally with LPS (1 mg/kg), VPC01091.4 (30 mg/kg), both LPS and VPC01091.4, or vehicle alone (20% 2-hydroxypropyl-β-cyclodextrin in PBS). The volume injected was 200 μl and solutions were sterile-filtered (0.45 µm) prior to use. […] Mice were euthanized at 4 h, then blood was collected via cardiac puncture and anticoagulated with K2EDTA. […] The lungs were dissected, coarsely homogenized, and partitioned into separate samples for RNA extraction and mass spectrometry analysis. Samples to be used for RNA were stored at −20°C in RNAlater Stabilization Solution (AM7021; Thermo Fisher Scientific) while samples for use in mass spectrometry were flash-frozen in liquid nitrogen. Whole brains were physically dissected, coarsely homogenized, and stored for later processing as with the lung tissue. 10 μl of each whole blood sample was reserved for mass spectrometry analysis, 15 μl was used to obtain lymphocyte counts with a Hematology Analyzer (Heska Element HT5), and the remainder was used to produce plasma through centrifugation at 2,000 × g for 15 min at 4°C. Plasma cytokines were then measured using a multiplex mouse proinflammatory cytokine panel performed by the University of Virginia Flow Cytometry Core (RRID: SCR_017829). Cytokine values beyond the limit of detection (LOD) are reported as the LOD value. Tissue RNA was isolated from preserved samples using 30 min of automated homogenization at 30 Hz with 5-mm ball-bearings in RLT Plus Lysis Buffer (TissueLyser II; Qiagen); RNA was then isolated using a RNeasy Plus Micro Kit (74134; Qiagen). Whole-tissue cytokine expression changes were then measured using qRT-PCR as with ex vivo cell culture experiments. For the lethal dose model, mice were injected with LPS (25 mg/kg), both LPS and VPC01091.4, or vehicle alone (20% 2-hydroxypropyl-β-cyclodextrin in PBS). Symptoms were scored according to a standardized clinical score sheet that assessed conjunctivitis, lethargy, degradation in hair grooming behavior, stool changes, and facial grimace (Table 1). Mice that lost >20% of their starting body weight or received a clinical score of 8 or greater were euthanized.

[2] = Whole-blood, brain and lung drug levels by LC-MS/MS in the sublethal LPS peritonitis model; type: in vivo; details: for Kp at 4 h / concentration at 4 h: both sexes, C57BL/6J, mouse, intraperitoneal
Description: as §1
The sample preparation method was adapted from that published by [Shaner et al. (2009)]. Specifically, homogenized tissue (100 μl) was added to a mixture of methanol and chloroform (2 ml, 3:1, LCMS grade) and incubated at 48°C for 16 h. The mixture was cooled to room temperature, an alcoholic KOH solution (200 μl, 1 M in LCMS-grade methanol) was added, and the mixture was further incubated at 37°C for 2 h. The samples were neutralized with glacial acetic acid (20 μl) and centrifuged at 4°C for 10 min at 10,000 × g. The supernatant fluid was transferred to a glass vial and dried under a stream of nitrogen. The material was dissolved in LCMS grade methanol (500 μl), vortexed, and centrifuged at 4°C for 10 min at 10,000 × g. The supernatant fluid was transferred to LC vials for analysis by LC-MS/MS.
Analyses were performed using a tandem quadrupole mass spectrometer (Xevo TQ-S micro; Waters) coupled to a UPLC (Waters Acquity h-class+) inlet equipped with a reverse phase C18 UPLC column (BEH C-18 1.7 µm bead size, 2.1 × 50 mm; Waters). The method used is a modification of that published by [Frej et al. (2015)]. Specifically, the LC flow rate was set at 0.4 ml/min and the column temperature was 60°C. […]

[3] = test system: LPS-induced endotoxemia in mice; assay: Lethal dose (LD50) LPS mouse model; type: in vivo; details: LD50 LPS + 30 mg/kg
RAW 264.7 macrophages = assay: LPS-induced inflammatory gene expression (qRT-PCR) in RAW 264.7 macrophages; type: cell-based; details: LPS 1 µg/ml for 3 h
Description: RAW 264.7 macrophages or BMDMs were seeded at a density of 250,000 cells per well into a 12-well tissue culture plate in 1 ml of media and left to incubate overnight. The indicated drug or vehicle control was added to each well, and the plate was agitated and left to incubate for 10 min. The cells were then treated with LPS (1 μg/ml) or an equivalent volume of PBS, agitated, and left to incubate for 3 h. Cells were washed with PBS and then RNA isolation was performed using RNeasy Plus Micro Kit (74134; Qiagen). cDNA was produced using GoScript Reverse Transcriptase ([…]; Promega) and a quantitative PCR was performed using SensiFast SYBR (98020; Bioline) and Bio-Rad CFX Connect thermocycler. Each datum represents an individual, biological replicate that is the mean of duplicate technical replicates. Fold-changes are all reported relative to untreated controls for each experiment and were calculated using the ΔΔCt method, with β2-microglobulin used as the housekeeping gene for each sample. The experiment was performed similarly with BV-2 microglia and alveolar macrophages, except that cells were plated at a density of 100,000 cells per well into a 24-well tissue culture plate with 1 ml of media per well.

lymphocytes = test system: lymphocytes; design: method as in Brinkmann et al., 2002; Zhu et al., 2007; details: ref Brinkmann et al., 2002; Zhu et al., 2007; cited from earlier work
[4] = LPS 1 mg/kg + 30 mg/kg i.p., 4 h, vs LPS
[5] = whole-brain qRT-PCR, LPS 1 mg/kg + 30 mg/kg i.p., 4 h, vs LPS

With `CCCCCCCCc1ccc([C@@H]2CC[C@@](N)(CO)C2)cc1` [VPC01091.4, ((1S,3R)-1-amino-3-(4-octylphenyl)cyclopentyl)methanol] the Tolerability in mice ([1]; 30 mg/kg i.p.) was “well-tolerated”, the Absolute lymphocyte counts ([1]; 30 mg/kg i.p., 4 h, between treatment groups) was “no significant differences” and the “Plasma IL-10” value ([1]; LPS 1 mg/kg + 30 mg/kg i.p., 4 h) was “higher levels”. For the same compound, the “Plasma IFNγ” value [1, 4] was “significantly suppressed”, the “Plasma IL-1β” value [1, 4] was “significantly suppressed” and the “Plasma TNFα” value [1, 4] was “significantly suppressed”. For the same compound, the “Brain expression of CCL4” value [1, 5] was “significantly suppressed”, the “Brain expression of IL-1β” value [1, 5] was “significantly suppressed” and the “Brain expression of IL-6” value [1, 5] was “significantly suppressed”. The “Brain expression of TNFα” value [1, 5] was “significantly suppressed”, the “Lung expression of IL-6” value ([1]; whole-lung qRT-PCR, LPS 1 mg/kg + 30 mg/kg i.p., 4 h, vs LPS) was “non-significantly lower” and the Kp at 4 h ([2]; brain / whole blood, 30 mg/kg i.p., VPC4 + LPS group, read-out: Mean brain level relative to mean blood level) was 9.35. It also gave a Kp at 4 h ([2]; brain / whole blood, 30 mg/kg, 30 mg/kg i.p., VPC4 group, read-out: Mean brain level relative to mean blood level) of 8.97, a concentration at 4 h ([2]; brain, 30 mg/kg i.p., VPC4 + LPS group, read-out: Mean brain concentration) of 162 µM and a concentration at 4 h ([2]; brain, 30 mg/kg i.p., VPC4 group, read-out: Mean brain concentration) of 142 µM. The Kp at 4 h ([2]; lung / whole blood, 30 mg/kg i.p., VPC4 + LPS group, read-out: Mean lung level relative to mean blood level) was 33.2, the Kp at 4 h ([2]; lung / whole blood, 30 mg/kg, 30 mg/kg i.p., VPC4 group, read-out: Mean lung level relative to mean blood level) was 31.1 and the Kp at 4 h ([2]; lung / whole blood, 30 mg/kg, mice that received VPC4, 30 mg/kg i.p., read-out: Lung levels relative to blood) was 32. The concentration at 4 h ([2]; lung, 30 mg/kg i.p., VPC4 + LPS group, read-out: Mean lung concentration) was 576 µM, the concentration at 4 h ([2]; lung, 30 mg/kg i.p., VPC4 group, read-out: Mean lung concentration) was 490 µM and the concentration at 4 h ([2]; whole blood, 30 mg/kg i.p. with LPS 1 mg/kg, cotreatment group, read-out: Mean whole blood concentration) was 17.4 µM. The concentration at 4 h ([2]; whole blood, 30 mg/kg i.p., drug-treated group, read-out: Mean whole blood concentration) was 15.8 µM, the “Brain levels relative to blood” value ([2]; mice that received VPC4, 30 mg/kg i.p., 4 h) was “approximately ninefold” and the Survival rate ([3]; 132 h, LPS-only 50%, control 100%, P = 0.127) was 83.33%. For the same compound, the “Clinical scores (symptoms)” value ([3]; vs LPS only, 132 h) was “significantly reduced at a number of timepoints”, the “Weight change from baseline” value ([3]; vs LPS only, after first 48 h) was “recovering at a higher nadir and at an earlier timepoint” and the “LPS-stimulated IL-1β gene expression” value (RAW 264.7 macrophages; 5 µM pretreatment) was “almost completely abrogated”. The “LPS-stimulated IL-1β gene expression” value (RAW 264.7 macrophages; 10 µM pretreatment) was “almost completely abrogated” and the “Lymphopenia when administered to mice” value (lymphocytes) was “do not evoke lymphopenia”.
